In PubChem BioAssay AID2060623 (Molecular Pharmacology Branch, DTP, NCI, 2025):

System: 227483-062-R1-J1-PDC complex spheroids with HUVEC/MSC, viability
Assay: Anticancer human tumor 227483-062-R1-J1-PDC patient-derived pancreatic carcinoma cell line growth inhibition [CLK]
Details: for IC50: curve of first compound; for viability, T/C: stronger effect = lower value
Outline: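 Multi-cell-type spheroids combined patient-derived tumor cells with HUVEC endothelial cells and human mesenchymal stem cells. Paired agents were dosed in half-log steps down from about clinical Cmax, or from 10 microM where Cmax was unknown.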

[1] = second compound 0.0316 µM, first compound 0.0316 µM
[2] = second compound 0.0316 µM, first compound 0.1 µM
[3] = second compound 0.0316 µM, first compound 0.316 µM
[4] = second compound 0.0316 µM, first compound 1 µM
[5] = second compound 0.1 µM, first compound 0.0316 µM
[6] = second compound 0.1 µM, first compound 0.1 µM
[7] = second compound 0.1 µM, first compound 0.316 µM
[8] = second compound 0.1 µM, first compound 1 µM
[9] = second compound 0.316 µM, first compound 0.0316 µM
[10] = second compound 0.316 µM, first compound 0.1 µM
[11] = second compound 0.316 µM, first compound 0.316 µM
[12] = second compound 0.316 µM, first compound 1 µM
[13] = second compound 1 µM, first compound 0.0316 µM
[14] = second compound 1 µM, first compound 0.1 µM
[15] = second compound 1 µM, first compound 0.316 µM
[16] = second compound 1 µM, first compound 1 µM
[17] = second compound 3.16 µM, first compound 0.0316 µM
[18] = second compound 3.16 µM, first compound 0.1 µM
[19] = second compound 3.16 µM, first compound 0.316 µM
[20] = second compound 3.16 µM, first compound 1 µM
[21] = second compound 10 µM, first compound 0.0316 µM
[22] = second compound 10 µM, first compound 0.1 µM
[23] = second compound 10 µM, first compound 0.316 µM
[24] = second compound 10 µM, first compound 1 µM
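Note: spheroids exposed to compounds for seven days before readout.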
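Throughout, for viability, T/C: percent of DMSO vehicle control luminescence as 100% viability.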

`CC(Nc1ccc2c(c1)OCCn1cc(N3C(=O)OCC3C(F)F)nc1-2)C(N)=O` (centres undefined) + CN1CCN(c2cc(C(=O)Nc3cc4cc(-c5cnn(C)c5)ccc4cn3)ccn2)CC1 was tested, and the IC50 (second compound 0.0316 µM) was greater than 10 µM, the IC50 (second compound 0.1 µM) was 0.248 µM and the IC50 (second compound 0.316 µM) was less than 0.0316 µM. For the same compound, the IC50 (second compound 1 µM) was less than 0.0316 µM, the IC50 (second compound 3.16 µM) was less than 0.0316 µM and the IC50 (second compound 10 µM) was less than 0.0316 µM. It also gave a viability, T/C [1] of 108%, a viability, T/C [2] of 81.5% and a viability, T/C [3] of 70%. For the same compound, the viability, T/C [4] was 77.8%, the viability, T/C (second compound 0.0316 µM, first compound 3.16 µM) was 63% and the viability, T/C (second compound 0.0316 µM, first compound 10 µM) was 66.1%. The viability, T/C [5] was 72.6%, the viability, T/C [6] was 60.6% and the viability, T/C [7] was 47.2%. It also gave a viability, T/C [8] of 45.7%, a viability, T/C (second compound 0.1 µM, first compound 3.16 µM) of 48.7% and a viability, T/C (second compound 0.1 µM, first compound 10 µM) of 44.8%. It also gave a viability, T/C [9] of 7.83%, a viability, T/C [10] of 6.06% and a viability, T/C [11] of 6.08%. For the same compound, the viability, T/C [12] was 6.51%, the viability, T/C (second compound 0.316 µM, first compound 3.16 µM) was 6.66% and the viability, T/C (second compound 0.316 µM, first compound 10 µM) was 5.69%. The viability, T/C [13] was 3.5%, the viability, T/C [14] was 1.22% and the viability, T/C [15] was 1.34%. For the same compound, the viability, T/C [16] was 1.35%, the viability, T/C (second compound 1 µM, first compound 3.16 µM) was 2.69% and the viability, T/C (second compound 1 µM, first compound 10 µM) was 2.57%. It also gave a viability, T/C [17] of 5.8%, a viability, T/C [18] of 3.43% and a viability, T/C [19] of 2.3%. It also gave a viability, T/C [20] of 2.9%, a viability, T/C (second compound 3.16 µM, first compound 3.16 µM) of 2.51% and a viability, T/C (second compound 3.16 µM, first compound 10 µM) of 2.34%. The viability, T/C [21] was 2.26%, the viability, T/C [22] was 2.36% and the viability, T/C [23] was 2.91%. For the same compound, the viability, T/C [24] was 1.47%, the viability, T/C (second compound 10 µM, first compound 3.16 µM) was 1.7% and the viability, T/C (second compound 10 µM, first compound 10 µM) was 3.3%.
Work on `COc1c(OCCCN2CCOCC2)ccc2c3n(c(=NC(=O)c4cnc(N)nc4)nc12)CCN3` + CN1CCN(c2cc(C(=O)Nc3cc4cc(-c5cnn(C)c5)ccc4cn3)ccn2)CC1 yielded an IC50 (second compound 0.0316 µM) of 0.194 µM, an IC50 (second compound 0.1 µM) of 0.025 µM and an IC50 (second compound 0.316 µM) of less than 0.00316 µM. For the same compound, the IC50 (second compound 1 µM) was less than 0.00316 µM, the IC50 (second compound 3.16 µM) was less than 0.00316 µM and the IC50 (second compound 10 µM) was less than 0.00316 µM. It also gave a viability, T/C (second compound 0.0316 µM, first compound 0.00316 µM) of 114%, a viability, T/C (second compound 0.0316 µM, first compound 0.01 µM) of 96.6% and a viability, T/C [1] of 74.2%. For the same compound, the viability, T/C [2] was 60.9%, the viability, T/C [3] was 43.3% and the viability, T/C [4] was 27.8%. The viability, T/C (second compound 0.1 µM, first compound 0.00316 µM) was 60.1%, the viability, T/C (second compound 0.1 µM, first compound 0.01 µM) was 65% and the viability, T/C [5] was 41%. It also gave a viability, T/C [6] of 38.8%, a viability, T/C [7] of 23.2% and a viability, T/C [8] of 16.7%. For the same compound, the viability, T/C (second compound 0.316 µM, first compound 0.00316 µM) was 6.51%, the viability, T/C (second compound 0.316 µM, first compound 0.01 µM) was 6.64% and the viability, T/C [9] was 5.96%. It also gave a viability, T/C [10] of 6.61%, a viability, T/C [11] of 5.11% and a viability, T/C [12] of 4.05%. The viability, T/C (second compound 1 µM, first compound 0.00316 µM) was 3.87%, the viability, T/C (second compound 1 µM, first compound 0.01 µM) was 1.44% and the viability, T/C [13] was 1.35%. The viability, T/C [14] was 1.23%, the viability, T/C [15] was 1.21% and the viability, T/C [16] was 1.6%. For the same compound, the viability, T/C (second compound 3.16 µM, first compound 0.00316 µM) was 2.64%, the viability, T/C (second compound 3.16 µM, first compound 0.01 µM) was 2.53% and the viability, T/C [17] was 2.97%. For the same compound, the viability, T/C [18] was 1.79%, the viability, T/C [19] was 1.84% and the viability, T/C [20] was 1.94%. It also gave a viability, T/C (second compound 10 µM, first compound 0.00316 µM) of 3.49%, a viability, T/C (second compound 10 µM, first compound 0.01 µM) of 3.33% and a viability, T/C [21] of 1.42%. The viability, T/C [22] was 1.13%, the viability, T/C [23] was 3.58% and the viability, T/C [24] was 1.55%.
